From ChEMBL document CHEMBL1201862, “PubChem BioAssay data set” (2004)
Calls of active or inactive are those of the source.

Tests used:
[1] = reduction of Shn3 3'UTR-driven luciferase in osteoblasts – cell-based, Clone20 osteoblasts, firefly luciferase, cherry-picked, dose response (AID 624132); assay type: functional;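 further: firefly luciferase luminescence from reporter carrying the Shn3 3'UTR in osteoblasts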
[2] = target: Peroxisome proliferator-activated receptor gamma/Nuclear receptor corepressor 2 (Homo sapiens, UniProt P37231+Q9Y618); assay type: functional
[3] = target: Lysine-specific demethylase 4A (Homo sapiens, UniProt O75164); experiment: inhibition of JMJD2A H3K9me3 demethylation – biochemical, DELFIA europium, cherry-picked samples, selectivity assay for GASC-1 inhibitor project, dose response (AID 488840)
Caspase-8 = Caspase-8 (Homo sapiens, UniProt Q14790); experiment: inhibitors of purified CASP8 protease – biochemical, Z-IETD-R110 fluorescence, cherry-picked samples, selectivity assay for caspase-6 inhibitor project, dose response (AID 743294)
[4] = microbe, parasite or virus in culture; assay type: functional; conditions: Mycobacterium tuberculosis
[5] = target: Dual specificity protein phosphatase 6 (Rattus norvegicus, UniProt Q64346); experiment: inhibition of rat DUSP6 enzyme activity – biochemical, in vitro, primary screen (AID 425)
[6] = blockers of bursicon-stimulated LGR2 cAMP reporter – cell-based, HEK293, CRE-luciferase reporter, cherry pick, set 2, dose response (AID 743343); assay type: functional;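 further: transfected cells were stimulated with diluted bursicon conditioned medium after compound addition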
Streptokinase A = target: T1, Streptokinase A (Streptococcus pyogenes serotype M1, UniProt P10520); experiment: viability-normalized secreted streptokinase activity reduction – plasminogen activation absorbance, OD405, dose response (AID 1914); assay type: functional, Streptococcus pyogenes M1 GAS;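 further: secreted streptokinase activity via plasminogen activation per viability signal from cell pellet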
T1 sequence (P10520 whole entry): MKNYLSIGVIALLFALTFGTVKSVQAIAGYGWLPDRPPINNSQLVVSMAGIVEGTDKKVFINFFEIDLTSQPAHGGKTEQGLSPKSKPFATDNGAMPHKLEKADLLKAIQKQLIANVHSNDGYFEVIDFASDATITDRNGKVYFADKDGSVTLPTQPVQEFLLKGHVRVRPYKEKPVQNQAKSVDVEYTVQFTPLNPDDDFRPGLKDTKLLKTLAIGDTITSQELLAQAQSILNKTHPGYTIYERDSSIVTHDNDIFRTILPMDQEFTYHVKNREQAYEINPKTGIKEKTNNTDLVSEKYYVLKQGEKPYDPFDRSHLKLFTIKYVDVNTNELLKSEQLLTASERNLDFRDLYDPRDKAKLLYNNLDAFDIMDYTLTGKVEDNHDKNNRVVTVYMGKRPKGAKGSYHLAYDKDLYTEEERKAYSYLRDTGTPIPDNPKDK

Streptococcus = experiment: GAS UMAA2166 growth inhibition – luminescence, BacTiterGlo, counter-screen for streptokinase expression inhibitor project, dose response (AID 1915); assay type: functional, organism-based;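 further: potency for reduction of bacterial viability or growth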
[7] = off-target signal loss in HeLa-CEM21 co-culture – HeLa F-luc CTL cells, cherry-picked, counter-screen for HIV-1 Env fusion inhibitor project, dose response (AID 652040); assay type: functional, cell-based;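 further: potency for signal decrease marking cytotoxic or nonspecific inhibition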
Cytochrome P450 3A4 = Cytochrome P450 3A4 (Homo sapiens, UniProt P08684);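 further: CYP3A4 tested as one member of a cytochrome P450 panel screen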
[8] = general mammalian cell viability loss – activator set, cherry-pick, cytotoxicity control for miR-122 modulator project, dose response (AID 720690); assay type: functional, cell-based;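 further: HEK293T human cells scored for general mammalian cytotoxicity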
[9] = system: Streptococcus sp. 'group A'; experiment: Streptococcus pyogenes SK(-)GAS viability under kanamycin – luminescence, BacTiterGlo, confirmation, counter-screen for streptokinase expression inhibitor project, dose response (AID 1900); assay type: functional, organism-based
cells [10] = assay type: functional, cell-based; conditions: HEK-CNG
Cytochrome P450 2C19 = Cytochrome P450 2C19 (Homo sapiens, UniProt P33261); experiment: Cytochrome panel assay with activity outcomes. Panel member name: p450-cyp2c19 Compounds with AC50 equal or less than 10 uM are considered active; assay type: functional; conditions: read-out: AC50
[11] = target: Sphingosine 1-phosphate receptor 2 (Homo sapiens, UniProt O95136); experiment: Dose Response Cell Based Assay for Antagonists of the S1P2 Receptor. [Related pubchem assays: 856, 736 ]; assay type: functional
[12] = HIV-1 AD8 envelope cell-cell fusion blockers – cherry-pick, dose response (AID 652062); assay type: functional, cell-based;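 further: luciferase signal from cell-cell fusion driven by HIV-1 clade B AD8 Env; potency is for inhibitors of fusion seen as a drop in luminescence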
cells [13] = assay type: functional, cell-based
[14] = target: T2, Small ubiquitin-related modifier 2 (Homo sapiens, UniProt P61956); experiment: disruption of SUMO2 interaction with SIM peptide – biochemical, fluorescence polarization, uHTS hits, selectivity assay for SUMO1 interaction inhibitor project, dose response (AID 624385); assay type: functional; conditions: read-out: IC50_Mean
Genome polyprotein = Genome polyprotein (dengue virus type 2, UniProt P29990); experiment: flavivirus cap methylation enzyme inhibition – biochemical, confirmation dose response, primary screen (AID 588689); assay type: functional
[15] = target: T3, RNA-binding protein pos-1 (Caenorhabditis elegans, UniProt G5EF15); experiment: disruptors of C. elegans POS-1 RNA interaction – biochemical, fluorescence polarization, dose response (AID 1964);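 further: purified POS-1 fused to maltose binding protein made in E. coli; potency of compounds blocking POS-1 binding to fluorescent RNA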
T3 sequence (G5EF15 whole entry): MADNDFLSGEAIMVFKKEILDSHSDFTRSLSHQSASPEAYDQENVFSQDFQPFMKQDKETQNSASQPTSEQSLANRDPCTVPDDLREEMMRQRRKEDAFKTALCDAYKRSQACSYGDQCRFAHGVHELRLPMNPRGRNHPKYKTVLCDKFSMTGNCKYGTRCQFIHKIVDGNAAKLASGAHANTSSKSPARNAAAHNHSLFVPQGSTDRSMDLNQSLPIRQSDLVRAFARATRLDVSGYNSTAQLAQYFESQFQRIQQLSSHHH

[16] = target: T4, Small ubiquitin-related modifier 1 (Homo sapiens, UniProt P63165); experiment: SUMO1 protein-protein binding blockers, potency – biochemical, FRET, dose response (AID 624383); assay type: functional; conditions: read-out: IC50_Mean
[17] = target: T5, Zinc finger protein mex-5 (Caenorhabditis elegans, UniProt Q9XUB2); experiment: potency of MEX-5 RNA-binding blockers – biochemical, C. elegans, fluorescence polarization, dose response (AID 1960)
T5 sequence (Q9XUB2 whole entry): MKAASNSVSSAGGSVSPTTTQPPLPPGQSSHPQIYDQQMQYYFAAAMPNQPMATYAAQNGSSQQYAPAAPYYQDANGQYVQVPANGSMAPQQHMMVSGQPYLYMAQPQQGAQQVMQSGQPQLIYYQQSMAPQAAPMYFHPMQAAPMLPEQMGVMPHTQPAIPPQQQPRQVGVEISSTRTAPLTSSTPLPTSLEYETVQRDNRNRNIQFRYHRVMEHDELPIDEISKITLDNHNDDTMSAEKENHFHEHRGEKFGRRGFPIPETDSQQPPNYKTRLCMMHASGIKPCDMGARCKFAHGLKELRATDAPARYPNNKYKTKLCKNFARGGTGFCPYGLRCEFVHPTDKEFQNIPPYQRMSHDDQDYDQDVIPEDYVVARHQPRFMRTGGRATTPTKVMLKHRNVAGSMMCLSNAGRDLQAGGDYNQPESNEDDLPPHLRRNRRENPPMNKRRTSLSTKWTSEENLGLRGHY

[18] = target: T2, Small ubiquitin-related modifier 2; experiment: SUMO2 binding disruption by SUMO1 hits – biochemical, FRET, human SUMO2, uHTS hits, selectivity assay for SUMO1 interaction inhibitor project, dose response (AID 624384); assay type: functional; conditions: read-out: IC50_Mean
[19] = target: T4, Small ubiquitin-related modifier 1; experiment: SUMO1 protein interaction blockers, potency – biochemical, fluorescence polarization, uHTS hits, dose response (AID 624382); assay type: functional; conditions: read-out: IC50_Mean

T4 sequence (P63165 whole entry): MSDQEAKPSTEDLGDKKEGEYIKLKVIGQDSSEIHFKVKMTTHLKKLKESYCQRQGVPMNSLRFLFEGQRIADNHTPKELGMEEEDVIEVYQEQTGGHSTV
T2 sequence (P61956 whole entry): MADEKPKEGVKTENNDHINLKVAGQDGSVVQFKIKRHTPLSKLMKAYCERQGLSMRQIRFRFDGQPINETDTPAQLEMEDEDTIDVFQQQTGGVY
Chain of Dual specificity protein phosphatase 6 (Q64346 whole entry): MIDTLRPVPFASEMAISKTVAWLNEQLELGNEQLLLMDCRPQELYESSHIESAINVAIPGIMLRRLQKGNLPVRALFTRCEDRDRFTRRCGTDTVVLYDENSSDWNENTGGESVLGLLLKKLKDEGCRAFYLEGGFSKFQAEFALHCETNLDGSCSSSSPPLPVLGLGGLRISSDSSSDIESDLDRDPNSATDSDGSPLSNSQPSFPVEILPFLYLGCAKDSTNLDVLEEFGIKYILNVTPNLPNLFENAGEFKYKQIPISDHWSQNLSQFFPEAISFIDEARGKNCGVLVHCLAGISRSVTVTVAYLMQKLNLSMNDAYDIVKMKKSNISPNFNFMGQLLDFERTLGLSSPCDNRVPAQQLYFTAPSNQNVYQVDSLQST
Chain of Cytochrome P450 2C19 (P33261 whole entry): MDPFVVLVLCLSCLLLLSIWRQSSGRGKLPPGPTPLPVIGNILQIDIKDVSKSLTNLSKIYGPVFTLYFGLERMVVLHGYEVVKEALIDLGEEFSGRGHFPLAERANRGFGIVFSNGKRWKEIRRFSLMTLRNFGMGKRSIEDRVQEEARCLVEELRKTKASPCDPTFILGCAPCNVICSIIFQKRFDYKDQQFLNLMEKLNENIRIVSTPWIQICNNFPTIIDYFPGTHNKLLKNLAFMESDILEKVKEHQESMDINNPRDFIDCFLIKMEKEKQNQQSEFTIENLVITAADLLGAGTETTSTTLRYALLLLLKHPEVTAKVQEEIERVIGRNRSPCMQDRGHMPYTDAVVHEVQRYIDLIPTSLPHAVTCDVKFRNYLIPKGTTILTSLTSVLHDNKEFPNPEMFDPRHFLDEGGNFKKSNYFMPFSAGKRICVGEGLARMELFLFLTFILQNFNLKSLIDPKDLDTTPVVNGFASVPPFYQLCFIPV
Chain of Sphingosine 1-phosphate receptor 2 (O95136 whole entry, the tested form may be a part): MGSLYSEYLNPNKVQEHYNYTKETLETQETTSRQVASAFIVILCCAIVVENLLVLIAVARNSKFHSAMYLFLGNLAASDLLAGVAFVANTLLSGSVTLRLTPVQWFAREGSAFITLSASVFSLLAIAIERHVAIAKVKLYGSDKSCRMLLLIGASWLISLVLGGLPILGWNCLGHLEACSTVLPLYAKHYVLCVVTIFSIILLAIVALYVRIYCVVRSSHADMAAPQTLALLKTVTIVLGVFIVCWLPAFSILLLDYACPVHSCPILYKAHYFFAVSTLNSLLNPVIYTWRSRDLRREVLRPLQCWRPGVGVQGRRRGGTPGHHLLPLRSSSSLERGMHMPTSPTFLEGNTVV
Chain of Peroxisome proliferator-activated receptor gamma/Nuclear receptor corepressor 2 (P37231 whole entry): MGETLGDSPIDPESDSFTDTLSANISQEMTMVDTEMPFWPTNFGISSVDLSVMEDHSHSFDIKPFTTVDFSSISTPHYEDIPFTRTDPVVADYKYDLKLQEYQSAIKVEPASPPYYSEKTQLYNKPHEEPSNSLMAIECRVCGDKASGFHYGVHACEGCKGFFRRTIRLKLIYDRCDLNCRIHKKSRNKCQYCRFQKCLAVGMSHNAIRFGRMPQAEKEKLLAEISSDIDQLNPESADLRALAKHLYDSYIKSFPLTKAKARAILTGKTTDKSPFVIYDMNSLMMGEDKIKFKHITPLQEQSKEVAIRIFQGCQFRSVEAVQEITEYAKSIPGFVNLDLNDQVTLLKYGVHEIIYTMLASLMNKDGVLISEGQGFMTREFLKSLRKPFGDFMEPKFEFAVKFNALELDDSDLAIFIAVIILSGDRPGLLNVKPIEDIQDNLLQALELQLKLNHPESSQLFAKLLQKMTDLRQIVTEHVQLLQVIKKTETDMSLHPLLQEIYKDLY
Chain of Peroxisome proliferator-activated receptor gamma/Nuclear receptor corepressor 2 (Q9Y618 whole entry): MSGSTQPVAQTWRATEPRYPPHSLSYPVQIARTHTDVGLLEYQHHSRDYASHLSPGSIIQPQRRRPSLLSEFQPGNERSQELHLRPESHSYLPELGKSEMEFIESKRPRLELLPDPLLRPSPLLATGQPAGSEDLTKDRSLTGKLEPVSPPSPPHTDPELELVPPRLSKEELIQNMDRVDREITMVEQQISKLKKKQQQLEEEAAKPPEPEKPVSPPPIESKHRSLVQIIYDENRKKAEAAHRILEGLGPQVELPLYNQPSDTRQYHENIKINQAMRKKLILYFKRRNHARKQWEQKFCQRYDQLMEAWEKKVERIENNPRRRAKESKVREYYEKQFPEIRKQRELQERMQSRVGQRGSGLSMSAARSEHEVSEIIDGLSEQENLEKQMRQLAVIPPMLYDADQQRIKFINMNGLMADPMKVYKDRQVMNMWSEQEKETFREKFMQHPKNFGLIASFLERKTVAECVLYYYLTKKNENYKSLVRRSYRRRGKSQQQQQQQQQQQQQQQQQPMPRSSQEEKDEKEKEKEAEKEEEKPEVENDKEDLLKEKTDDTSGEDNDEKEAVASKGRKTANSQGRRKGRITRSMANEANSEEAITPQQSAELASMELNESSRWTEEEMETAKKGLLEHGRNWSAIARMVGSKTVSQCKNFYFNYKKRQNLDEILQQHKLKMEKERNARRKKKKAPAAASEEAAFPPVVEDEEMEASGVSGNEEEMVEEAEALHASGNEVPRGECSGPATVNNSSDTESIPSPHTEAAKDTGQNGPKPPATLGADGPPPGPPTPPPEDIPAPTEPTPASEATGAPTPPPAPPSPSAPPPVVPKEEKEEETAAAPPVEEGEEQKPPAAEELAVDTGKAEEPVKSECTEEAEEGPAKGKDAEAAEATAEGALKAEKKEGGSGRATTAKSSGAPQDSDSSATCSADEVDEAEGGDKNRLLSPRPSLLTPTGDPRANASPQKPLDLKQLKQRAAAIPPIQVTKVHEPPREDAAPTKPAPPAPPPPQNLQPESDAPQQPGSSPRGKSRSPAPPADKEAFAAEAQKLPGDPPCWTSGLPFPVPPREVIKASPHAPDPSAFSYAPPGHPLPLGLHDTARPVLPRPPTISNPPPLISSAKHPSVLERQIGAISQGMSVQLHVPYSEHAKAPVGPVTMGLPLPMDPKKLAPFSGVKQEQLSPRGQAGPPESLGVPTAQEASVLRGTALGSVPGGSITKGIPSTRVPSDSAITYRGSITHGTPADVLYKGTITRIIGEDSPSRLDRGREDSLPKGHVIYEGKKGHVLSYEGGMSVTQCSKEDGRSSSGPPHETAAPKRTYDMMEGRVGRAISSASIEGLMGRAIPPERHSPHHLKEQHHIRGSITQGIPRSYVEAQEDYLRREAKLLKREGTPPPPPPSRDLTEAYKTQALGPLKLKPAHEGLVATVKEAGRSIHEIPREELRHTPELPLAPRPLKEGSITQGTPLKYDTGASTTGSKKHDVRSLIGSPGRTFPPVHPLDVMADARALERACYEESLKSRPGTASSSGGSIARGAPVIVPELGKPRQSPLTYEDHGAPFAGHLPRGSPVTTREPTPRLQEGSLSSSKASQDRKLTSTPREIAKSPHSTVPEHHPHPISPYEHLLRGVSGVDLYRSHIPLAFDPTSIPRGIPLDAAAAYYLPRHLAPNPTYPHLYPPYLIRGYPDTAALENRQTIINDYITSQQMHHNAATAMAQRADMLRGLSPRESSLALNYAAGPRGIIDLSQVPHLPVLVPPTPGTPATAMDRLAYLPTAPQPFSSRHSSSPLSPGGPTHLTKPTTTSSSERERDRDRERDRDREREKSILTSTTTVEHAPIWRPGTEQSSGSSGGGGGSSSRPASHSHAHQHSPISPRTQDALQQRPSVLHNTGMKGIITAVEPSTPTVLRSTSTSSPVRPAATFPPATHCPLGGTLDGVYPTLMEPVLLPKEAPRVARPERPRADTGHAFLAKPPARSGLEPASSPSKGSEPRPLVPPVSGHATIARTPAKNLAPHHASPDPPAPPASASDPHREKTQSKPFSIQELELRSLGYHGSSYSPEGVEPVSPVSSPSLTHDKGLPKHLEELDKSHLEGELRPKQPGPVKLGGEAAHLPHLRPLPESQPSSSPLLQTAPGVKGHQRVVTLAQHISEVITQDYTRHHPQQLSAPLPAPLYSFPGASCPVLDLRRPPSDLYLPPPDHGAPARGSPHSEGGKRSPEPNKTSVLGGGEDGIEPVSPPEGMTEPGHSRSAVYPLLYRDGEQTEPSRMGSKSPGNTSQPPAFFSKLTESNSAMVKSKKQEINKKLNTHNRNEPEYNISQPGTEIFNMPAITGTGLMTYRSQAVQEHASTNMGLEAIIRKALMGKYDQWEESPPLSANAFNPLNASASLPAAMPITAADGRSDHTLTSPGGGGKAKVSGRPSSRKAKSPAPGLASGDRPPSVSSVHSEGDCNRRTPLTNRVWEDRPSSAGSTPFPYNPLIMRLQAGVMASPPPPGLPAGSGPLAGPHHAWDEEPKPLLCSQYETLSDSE
Chain of Cytochrome P450 3A4 (P08684 whole entry): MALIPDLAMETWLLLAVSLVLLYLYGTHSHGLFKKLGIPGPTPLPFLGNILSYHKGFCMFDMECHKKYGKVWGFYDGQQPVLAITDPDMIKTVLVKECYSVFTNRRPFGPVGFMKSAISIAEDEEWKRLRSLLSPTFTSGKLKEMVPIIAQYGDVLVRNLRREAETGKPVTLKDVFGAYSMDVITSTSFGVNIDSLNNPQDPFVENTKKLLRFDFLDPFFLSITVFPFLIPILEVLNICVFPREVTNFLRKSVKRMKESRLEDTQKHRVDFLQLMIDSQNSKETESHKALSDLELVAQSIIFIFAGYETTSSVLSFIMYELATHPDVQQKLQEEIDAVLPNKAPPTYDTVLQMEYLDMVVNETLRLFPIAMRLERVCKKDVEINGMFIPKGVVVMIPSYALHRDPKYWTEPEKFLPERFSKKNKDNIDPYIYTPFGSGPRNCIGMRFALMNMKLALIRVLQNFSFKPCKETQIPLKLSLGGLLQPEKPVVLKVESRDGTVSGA

Cn1nc(-c2ccccn2)nc2c(=O)n(C)c(=O)nc1-2
AC50 [1]: 0.493 µM (active) | IC50 [2]: 4.69 µM (active) | AC50 [3]: 5.1 µM (active) | AC50 (Caspase-8): 0.436 µM (active) | CC50 [4]: > 40 µM (active) | IC50 [5]: < 1.23 µM (not active) | AC50 [6]: 2.57 µM (active)

CCCCCCCCCCn1c2c(c(=N)c3c1CCC3)CCC2
EC50 (Streptokinase A): 4.86 µM (active) | EC50 (Streptococcus): 8.86 µM (active) | AC50 [7]: 0.424 µM (active) | AC50 (Cytochrome P450 3A4): 31.6 µM (inconclusive) | AC50 [8]: 6.56 µM (active) | EC50 [9]: 5.58 µM (active) | EC50 (cells [10]): 15.8 µM (inactive) | AC50 (Cytochrome P450 2C19): 28.2 µM (inconclusive) | IC50 [11]: 2.94 µM (active) | AC50 [12]: 0.726 µM (active)

CCC(=O)NC(c1ccc(OC)cc1)c1cc(Cl)c2cccnc2c1O (stereo not given)
EC50 (cells [13]): > 350 µM (not active)

COc1ccc(NS(=O)(=O)c2ccc3c(c2)[C@H]2C=CC[C@H]2[C@@H](c2ccc(C(=O)O)cc2)N3)cc1
IC50 [14]: 4.06 µM (active) | IC50 (Genome polyprotein): 44.3 µM (active) | EC50 [15]: 14.3 µM (inconclusive) | IC50 [16]: 24.5 µM (inactive) | EC50 [17]: 7.88 µM (active) | IC50 [18]: 5.81 µM (active) | IC50 [19]: 4.98 µM (active)
